# Data reported in US10004701B2, “Methods and compositions for treating infection” (UNIVERSITY OF ROCHESTER, priority 2012, dated 2018).
# Structures can show the parent of a compound that is named as a salt. Where two headings read alike, the source gives them in different places.
# Key:
# Experiment in all cases: AK assay 384-well format, Prestwick library screening
# [1] = system: S. aureus strain USA300-0114; format: cell-based, Staphylococcus aureus; settings: for fold induction at 50 µM: Staphylococcus aureus, USA300, 3 h
# E. cloacae = format: cell-based, Enterobacter cloacae; settings: for fold induction at 50 µM: Enterobacter cloacae, 3 h
# [2] = system: A. baumannii strain 98-37-09; format: cell-based, Acinetobacter baumannii; settings: for fold induction at 50 µM: Acinetobacter baumannii, 983709, 3 h
# P. aeruginosa = format: cell-based, Pseudomonas aeruginosa; settings: for fold induction at 50 µM: Pseudomonas aeruginosa, 3 h
# K. pneumoniae = format: cell-based, Klebsiella pneumoniae; settings: for fold induction at 50 µM: Klebsiella pneumoniae, 3 h
# E. coli = format: cell-based, Escherichia coli; settings: for fold induction at 50 µM: Escherichia coli, 3 h
# E. faecium = format: cell-based, Enterococcus faecium; settings: for fold induction at 50 µM: Enterococcus faecium, 3 h
# [3] = 50 μM final drug concentration, planktonic, cutoff for positive-scoring molecules 3-fold increase, read-out: AK-based Prestwick Library Screening Results, S. aureus (fold increase in extracellular AK activity)
# [4] = 50 μM final drug concentration, planktonic, cutoff for positive-scoring molecules 3-fold increase, read-out: AK-based Prestwick Library Screening Results, E. cloacae (fold increase in extracellular AK activity)
# [5] = 50 μM final drug concentration, planktonic, cutoff for positive-scoring molecules 3-fold increase, read-out: AK-based Prestwick Library Screening Results, A. baumannii (fold increase in extracellular AK activity)
# [6] = 50 μM final drug concentration, planktonic, cutoff for positive-scoring molecules 3-fold increase, read-out: AK-based Prestwick Library Screening Results, P. aeruginosa (fold increase in extracellular AK activity)
# [7] = 50 μM final drug concentration, planktonic, cutoff for positive-scoring molecules 3-fold increase, read-out: AK-based Prestwick Library Screening Results, K. pneumoniae (fold increase in extracellular AK activity)
# [8] = 50 μM final drug concentration, planktonic, cutoff for positive-scoring molecules 3-fold increase, read-out: AK-based Prestwick Library Screening Results, E. coli (fold increase in extracellular AK activity)
# [9] = 50 μM final drug concentration, planktonic, cutoff for positive-scoring molecules 3-fold increase, read-out: AK-based Prestwick Library Screening Results, E. faecium (fold increase in extracellular AK activity)
# [10] = 50 μM final drug concentration, planktonic, cutoff for positive 3-fold increase, read-out: AK-based Prestwick Library Screening Results, S. aureus (fold increase in extracellular AK activity)
# [11] = 50 μM final drug concentration, planktonic, cutoff for positive 3-fold increase, read-out: AK-based Prestwick Library Screening Results, E. cloacae (fold increase in extracellular AK activity)
# [12] = 50 μM final drug concentration, planktonic, cutoff for positive 3-fold increase, read-out: AK-based Prestwick Library Screening Results, A. baumannii (fold increase in extracellular AK activity)
# [13] = 50 μM final drug concentration, planktonic, cutoff for positive 3-fold increase, read-out: AK-based Prestwick Library Screening Results, P. aeruginosa (fold increase in extracellular AK activity)
# [14] = 50 μM final drug concentration, planktonic, cutoff for positive 3-fold increase, read-out: AK-based Prestwick Library Screening Results, K. pneumoniae (fold increase in extracellular AK activity)
# [15] = 50 μM final drug concentration, planktonic, cutoff for positive 3-fold increase, read-out: AK-based Prestwick Library Screening Results, E. coli (fold increase in extracellular AK activity)
# [16] = 50 μM final drug concentration, planktonic, cutoff for positive 3-fold increase, read-out: AK-based Prestwick Library Screening Results, E. faecium (fold increase in extracellular AK activity)
# [17] = planktonic S. aureus, 50 μM final drug concentration, 384-well, cutoff for positive-scoring molecules 3-fold increase, read-out: AK-based Prestwick Library Screening Results: S. aureus (increase in extracellular AK activity)
# [18] = planktonic E. cloacae, 50 μM final drug concentration, 384-well, cutoff for positive-scoring molecules 3-fold increase, read-out: AK-based Prestwick Library Screening Results: E. cloacae (increase in extracellular AK activity)
# [19] = planktonic A. baumannii, 50 μM final drug concentration, 384-well, cutoff for positive-scoring molecules 3-fold increase, read-out: AK-based Prestwick Library Screening Results: A. baumannii (increase in extracellular AK activity)
# [20] = planktonic P. aeruginosa, 50 μM final drug concentration, 384-well, cutoff for positive-scoring molecules 3-fold increase, read-out: AK-based Prestwick Library Screening Results: P. aeruginosa (increase in extracellular AK activity)
# [21] = planktonic K. pneumoniae, 50 μM final drug concentration, 384-well, cutoff for positive-scoring molecules 3-fold increase, read-out: AK-based Prestwick Library Screening Results: K. pneumoniae (increase in extracellular AK activity)
# [22] = planktonic E. coli, 50 μM final drug concentration, 384-well, cutoff for positive-scoring molecules 3-fold increase, read-out: AK-based Prestwick Library Screening Results: E. coli (increase in extracellular AK activity)
# [23] = planktonic E. faecium, 50 μM final drug concentration, 384-well, cutoff for positive-scoring molecules 3-fold increase, read-out: AK-based Prestwick Library Screening Results: E. faecium (increase in extracellular AK activity)
compound,measurement,setting,value
"CC(=O)c1cc2ccccc2oc1=O [Compound 3-Acetylcoumarin, 3-Acetylcoumarin]",fold induction at 50 µM,[1]; [3],0.6
same,fold induction at 50 µM,E. cloacae; [4],1.1
same,fold induction at 50 µM,[2]; [5],0.8
same,fold induction at 50 µM,P. aeruginosa; [6],0.8
same,fold induction at 50 µM,K. pneumoniae; [7],0.6
same,fold induction at 50 µM,E. coli; [8],0.7
same,fold induction at 50 µM,E. faecium; [9],0.9
CC(=O)[C@H]1CC[C@H]2[C@@H]3C[C@H](C)C4=CC(=O)CC[C@]4(C)[C@H]3[C@@H](O)C[C@]12C [Medrysone],fold induction at 50 µM,[1]; [3],0.6
same,fold induction at 50 µM,E. cloacae; [4],1
same,fold induction at 50 µM,[2]; [5],0.7
same,fold induction at 50 µM,P. aeruginosa; [6],0.8
same,fold induction at 50 µM,K. pneumoniae; [7],0.7
same,fold induction at 50 µM,E. coli; [8],0.7
same,fold induction at 50 µM,E. faecium; [9],1
C[C@]12CC[C@@H]3c4ccc(O)cc4CC[C@H]3[C@@H]1CC[C@@H]2O [Estradiol-17 beta],"AK-based Prestwick Library Screening Results, S. aureus (increase in extracellular AK activity)","[1]; planktonic S. aureus, 50 μM final drug concentration, cutoff for positive-scoring molecules 3-fold increase",0.8
same,"AK-based Prestwick Library Screening Results, E. cloacae (increase in extracellular AK activity)","E. cloacae; planktonic E. cloacae, 50 μM final drug concentration, cutoff for positive-scoring molecules 3-fold increase",1.3
same,"AK-based Prestwick Library Screening Results, A. baumannii (increase in extracellular AK activity)","[2]; planktonic A. baumannii, 50 μM final drug concentration, cutoff for positive-scoring molecules 3-fold increase",0.8
same,"AK-based Prestwick Library Screening Results, P. aeruginosa (increase in extracellular AK activity)","P. aeruginosa; planktonic P. aeruginosa, 50 μM final drug concentration, cutoff for positive-scoring molecules 3-fold increase",1.0
same,"AK-based Prestwick Library Screening Results, K. pneumoniae (increase in extracellular AK activity)","K. pneumoniae; planktonic K. pneumoniae, 50 μM final drug concentration, cutoff for positive-scoring molecules 3-fold increase",0.8
same,"AK-based Prestwick Library Screening Results, E. coli (increase in extracellular AK activity)","E. coli; planktonic E. coli, 50 μM final drug concentration, cutoff for positive-scoring molecules 3-fold increase",1.1
same,"AK-based Prestwick Library Screening Results, E. faecium (increase in extracellular AK activity)","E. faecium; planktonic E. faecium, 50 μM final drug concentration, cutoff for positive-scoring molecules 3-fold increase",0.9
CC(=O)SCC(Cc1ccccc1)C(=O)NCC(=O)OCc1ccccc1 (stereo not shown) [Racecadotril],fold induction at 50 µM,[1]; [10],1.9
same,fold induction at 50 µM,E. cloacae; [11],1.5
same,fold induction at 50 µM,[2]; [12],1.3
same,fold induction at 50 µM,P. aeruginosa; [13],1.2
same,fold induction at 50 µM,K. pneumoniae; [14],1.1
same,fold induction at 50 µM,E. coli; [15],1.2
same,fold induction at 50 µM,E. faecium; [16],1
OCCOCCN1CCN(C(c2ccccc2)c2ccc(Cl)cc2)CC1 (stereo not shown) [Hydroxyzine dihydrochloride],fold induction at 50 µM,[1]; [17],0.9
same,fold induction at 50 µM,E. cloacae; [18],1.6
same,fold induction at 50 µM,[2]; [19],1
same,fold induction at 50 µM,P. aeruginosa; [20],1
same,fold induction at 50 µM,K. pneumoniae; [21],0.8
same,fold induction at 50 µM,E. coli; [22],1
same,fold induction at 50 µM,E. faecium; [23],0.9
C[C@]12C=CC(=O)C=C1CC[C@@H]1[C@@H]2C(=O)C[C@@]2(C)[C@H]1CC[C@]2(O)C(=O)CO [Prednisone],fold induction at 50 µM,[1]; [17],1.1
same,fold induction at 50 µM,E. cloacae; [18],1.4
same,fold induction at 50 µM,[2]; [19],1.2
same,fold induction at 50 µM,P. aeruginosa; [20],0.9
same,fold induction at 50 µM,K. pneumoniae; [21],0.9
same,fold induction at 50 µM,E. coli; [22],1.2
same,fold induction at 50 µM,E. faecium; [23],0.9
CS(=O)(=O)Nc1ccc([N+](=O)[O-])cc1Oc1ccccc1 [Nimesulide],fold induction at 50 µM,"[1]; read-out: AK-based Prestwick Library Screening Results, S. aureus (increase in extracellular AK activity)",0.7
same,fold induction at 50 µM,"E. cloacae; read-out: AK-based Prestwick Library Screening Results, E. cloacae (increase in extracellular AK activity)",1.4
same,fold induction at 50 µM,"[2]; read-out: AK-based Prestwick Library Screening Results, A. baumannii (increase in extracellular AK activity)",0.9
same,fold induction at 50 µM,"P. aeruginosa; read-out: AK-based Prestwick Library Screening Results, P. aeruginosa (increase in extracellular AK activity)",0.9
same,fold induction at 50 µM,"K. pneumoniae; read-out: AK-based Prestwick Library Screening Results, K. pneumoniae (increase in extracellular AK activity)",0.7
same,fold induction at 50 µM,"E. coli; read-out: AK-based Prestwick Library Screening Results, E. coli (increase in extracellular AK activity)",0.9
same,fold induction at 50 µM,"E. faecium; read-out: AK-based Prestwick Library Screening Results, E. faecium (increase in extracellular AK activity)",0.8
NC(=O)c1cc[n+](CC2=C(C(=O)[O-])N3C(=O)[C@@H](NC(=O)Cc4cccs4)[C@H]3SC2)cc1 [Cefalonium],fold induction at 50 µM,"[1]; planktonic S. aureus, 50 μM final drug concentration, positive cutoff 3-fold increase, read-out: AK-based Prestwick library screening result, S. aureus (fold increase in extracellular AK activity)",1.6
same,fold induction at 50 µM,"E. cloacae; planktonic E. cloacae, 50 μM final drug concentration, positive cutoff 3-fold increase, read-out: AK-based Prestwick library screening result, E. cloacae (fold increase in extracellular AK activity)",1.4
same,fold induction at 50 µM,"[2]; planktonic A. baumannii, 50 μM final drug concentration, positive cutoff 3-fold increase, read-out: AK-based Prestwick library screening result, A. baumannii (fold increase in extracellular AK activity)",1.5
same,fold induction at 50 µM,"P. aeruginosa; planktonic P. aeruginosa, 50 μM final drug concentration, positive cutoff 3-fold increase, read-out: AK-based Prestwick library screening result, P. aeruginosa (fold increase in extracellular AK activity)",0.8
same,fold induction at 50 µM,"K. pneumoniae; planktonic K. pneumoniae, 50 μM final drug concentration, positive cutoff 3-fold increase, read-out: AK-based Prestwick library screening result, K. pneumoniae (fold increase in extracellular AK activity)",3.8
same,fold induction at 50 µM,"E. coli; planktonic E. coli, 50 μM final drug concentration, positive cutoff 3-fold increase, read-out: AK-based Prestwick library screening result, E. coli (fold increase in extracellular AK activity)",16.6
same,fold induction at 50 µM,"E. faecium; planktonic E. faecium, 50 μM final drug concentration, positive cutoff 3-fold increase, read-out: AK-based Prestwick library screening result, E. faecium (fold increase in extracellular AK activity)",0.9
CO[C@H]1/C=C/O[C@@]2(C)Oc3c(C)c(O)c4c(O)c(c(/C=N/N5CCN(C)CC5)c(O)c4c3C2=O)NC(=O)/C(C)=C\C=C\[C@H](C)[C@H](O)[C@@H](C)[C@@H](O)[C@@H](C)[C@H](OC(C)=O)[C@@H]1C [Rifampicin],fold induction at 50 µM,[1]; [10],0.8
same,fold induction at 50 µM,E. cloacae; [11],1.4
same,fold induction at 50 µM,[2]; [12],3
same,fold induction at 50 µM,P. aeruginosa; [13],0.6
same,fold induction at 50 µM,K. pneumoniae; [14],0.7
same,fold induction at 50 µM,E. coli; [15],1.3
same,fold induction at 50 µM,E. faecium; [16],0.8
CN1CCC(=C2c3ccccc3C=Cc3ccccc32)CC1 [Cyproheptadine hydrochloride],fold induction at 50 µM,"[1]; 50 μM final drug concentration, 384-well format, cutoff for positive-scoring molecules 3-fold increase, read-out: AK-based Prestwick Library Screening Results, S. aureus (increase in extracellular AK activity)",0.6
same,fold induction at 50 µM,"E. cloacae; 50 μM final drug concentration, 384-well format, cutoff for positive-scoring molecules 3-fold increase, read-out: AK-based Prestwick Library Screening Results, E. cloacae (increase in extracellular AK activity)",0.9
same,fold induction at 50 µM,"[2]; 50 μM final drug concentration, 384-well format, cutoff for positive-scoring molecules 3-fold increase, read-out: AK-based Prestwick Library Screening Results, A. baumannii (increase in extracellular AK activity)",0.9
same,fold induction at 50 µM,"P. aeruginosa; 50 μM final drug concentration, 384-well format, cutoff for positive-scoring molecules 3-fold increase, read-out: AK-based Prestwick Library Screening Results, P. aeruginosa (increase in extracellular AK activity)",0.9
same,fold induction at 50 µM,"K. pneumoniae; 50 μM final drug concentration, 384-well format, cutoff for positive-scoring molecules 3-fold increase, read-out: AK-based Prestwick Library Screening Results, K. pneumoniae (increase in extracellular AK activity)",0.6
same,fold induction at 50 µM,"E. coli; 50 μM final drug concentration, 384-well format, cutoff for positive-scoring molecules 3-fold increase, read-out: AK-based Prestwick Library Screening Results, E. coli (increase in extracellular AK activity)",0.9
same,fold induction at 50 µM,"E. faecium; 50 μM final drug concentration, 384-well format, cutoff for positive-scoring molecules 3-fold increase, read-out: AK-based Prestwick Library Screening Results, E. faecium (increase in extracellular AK activity)",0.9
